Test results taken from patent US20250230193A1, “CYCLIC COMPOUND HAVING SELECTIVE KRAS INHIBITORY EFFECT ON HRAS AND NRAS” (CHUGAI SEIYAKU KABUSHIKI KAISHA, priority 2022, published 2025).
*1 amine or outer side, *2 acyl side, *3 side chain or, on linkers, in order; H or OH if unused. Where a SMILES comes first, the peptide text is derived from it. Bridges are numbered along the chain shown (N, C = ends). [ ]: non-standard residue; d: D form. The star is where a group is joined. X21 = O=C([C@H](Cc1ccc(C(F)(F)F)cc1)N(CC1CCCC1)[*:1])[*:2]; X36 = CC(C)CCN([C@@H](Cc1ccc(C(F)(F)F)cc1)C(=O)[*:2])[*:1]; hPhe(3-Cl-4-CF3) = N[C@@H](CCc1ccc(C(F)(F)F)c(Cl)c1)C(=O)O; X37 = O=C([C@H](Cc1ccc(C(F)(F)F)cc1)N(CC1CCC1)[*:1])[*:2]; X18 = C=CCCN([C@@H](Cc1ccc(C(F)(F)F)cc1)C(=O)[*:2])[*:1]; X11 = C=CCN([C@@H](Cc1ccc(C(F)(F)F)cc1)C(=O)[*:2])[*:1]; NMeGly(cPent) = CN[C@H](C(=O)O)C1CCCC1; NMeD = CN[C@@H](CC(=O)O)C(=O)O; NMeL = CN[C@@H](CC(C)C)C(=O)O; Morpholide = C1CN(*)CCO1; Ac5c = NC1(C(=O)O)CCCC1; Sar = CNCC(=O)O

What was measured:
[1] = target: GDP-bound NRAS wild-type protein (Homo sapiens, UniProt P01111); assay: Binding to NRAS by surface plasmon resonance (SPR), Single Cycle Kinetics; settings: KD ratio NRAS/KRAS, SPR
[2] = target: GDP-bound HRAS wild-type protein (Homo sapiens, UniProt P01112); assay: Binding to HRAS by surface plasmon resonance (SPR), Single Cycle Kinetics; settings: KD ratio HRAS/KRAS, SPR
GDP-bound HRAS wild-type protein, sequence (P01112 whole entry): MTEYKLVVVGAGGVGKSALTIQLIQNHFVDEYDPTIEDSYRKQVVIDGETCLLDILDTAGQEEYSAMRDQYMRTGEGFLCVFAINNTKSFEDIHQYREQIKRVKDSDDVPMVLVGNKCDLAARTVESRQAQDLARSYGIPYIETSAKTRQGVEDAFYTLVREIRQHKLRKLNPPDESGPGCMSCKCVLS

GDP-bound NRAS wild-type protein, sequence (P01111 whole entry): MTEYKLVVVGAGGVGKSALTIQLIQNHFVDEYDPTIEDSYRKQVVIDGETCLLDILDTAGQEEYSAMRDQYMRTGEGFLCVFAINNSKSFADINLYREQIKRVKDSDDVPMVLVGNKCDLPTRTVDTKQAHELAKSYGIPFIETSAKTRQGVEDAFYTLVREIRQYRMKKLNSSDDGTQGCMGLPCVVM

Compound | NRAS/KRAS (ratio of KD for GDP-bound NRAS wild-type to KD for KRAS) [1] | HRAS/KRAS (ratio of KD for GDP-bound HRAS wild-type to KD for KRAS) [2]
CC[C@H](C)[C@@H]1NC(=O)[C@H](CC(C)C)N(C)C(=O)C[C@@H](C(=O)N2CCOCC2)N(C)C(=O)[C@H](C2CCCC2)N(C)C(=O)C2(CCCC2)NC(=O)[C@@H]2CCCN2C(=O)[C@H](CCc2ccc(C(F)(F)F)c(Cl)c2)NC(=O)CN(C)C(=O)[C@H](Cc2ccc(C(F)(F)F)cc2)N(CC2CCC2)C(=O)CN(C)C(=O)CN(C)C1=O [PP0123] ([NMeL]I[Sar][Sar][X37][Sar][hPhe(3-Cl-4-CF3)]P[Ac5c][NMeGly(cPent)][NMeD]-Morpholide; lactam N-11) | B (a compound having 3 or more and less than 10 is denoted as B) | C (A compound having a KD ratio of 0.1 or more and less than 3 is denoted as C)
CC[C@H](C)[C@@H]1NC(=O)[C@H](CC(C)C)N(C)C(=O)C[C@@H](C(=O)N2CCOCC2)N(C)C(=O)[C@H](C2CCCC2)N(C)C(=O)C2(CCCC2)NC(=O)[C@@H]2CCCN2C(=O)[C@H](CCc2ccc(C(F)(F)F)c(Cl)c2)NC(=O)CN(C)C(=O)[C@H](Cc2ccc(C(F)(F)F)cc2)N(CC2CCCC2)C(=O)CN(C)C(=O)CN(C)C1=O [PP0124] ([NMeL]I[Sar][Sar][X21][Sar][hPhe(3-Cl-4-CF3)]P[Ac5c][NMeGly(cPent)][NMeD]-Morpholide; lactam N-11) | C (A compound having a KD ratio of 0.1 or more and less than 3 is denoted as C) | C (A compound having a KD ratio of 0.1 or more and less than 3 is denoted as C)
CC[C@H](C)[C@@H]1NC(=O)[C@H](CC(C)C)N(C)C(=O)C[C@@H](C(=O)N2CCOCC2)N(C)C(=O)[C@H](C2CCCC2)N(C)C(=O)C2(CCCC2)NC(=O)[C@@H]2CCCN2C(=O)[C@H](CCc2ccc(C(F)(F)F)c(Cl)c2)NC(=O)CN(C)C(=O)[C@H](Cc2ccc(C(F)(F)F)cc2)N(CCC(C)C)C(=O)CN(C)C(=O)CN(C)C1=O [PP0126] ([NMeL]I[Sar][Sar][X36][Sar][hPhe(3-Cl-4-CF3)]P[Ac5c][NMeGly(cPent)][NMeD]-Morpholide; lactam N-11) | C (A compound having a KD ratio of 0.1 or more and less than 3 is denoted as C) | C (A compound having a KD ratio of 0.1 or more and less than 3 is denoted as C)
C=CCN1C(=O)CN(C)C(=O)CN(C)C(=O)[C@H]([C@@H](C)CC)NC(=O)[C@H](CC(C)C)N(C)C(=O)C[C@@H](C(=O)N2CCOCC2)N(C)C(=O)[C@H](C2CCCC2)N(C)C(=O)C2(CCCC2)NC(=O)[C@@H]2CCCN2C(=O)[C@H](CCc2ccc(C(F)(F)F)c(Cl)c2)NC(=O)CN(C)C(=O)[C@@H]1Cc1ccc(C(F)(F)F)cc1 [PP0128] ([NMeL]I[Sar][Sar][X11][Sar][hPhe(3-Cl-4-CF3)]P[Ac5c][NMeGly(cPent)][NMeD]-Morpholide; lactam N-11) | C (A compound having a KD ratio of 0.1 or more and less than 3 is denoted as C) | C (A compound having a KD ratio of 0.1 or more and less than 3 is denoted as C)
C=CCCN1C(=O)CN(C)C(=O)CN(C)C(=O)[C@H]([C@@H](C)CC)NC(=O)[C@H](CC(C)C)N(C)C(=O)C[C@@H](C(=O)N2CCOCC2)N(C)C(=O)[C@H](C2CCCC2)N(C)C(=O)C2(CCCC2)NC(=O)[C@@H]2CCCN2C(=O)[C@H](CCc2ccc(C(F)(F)F)c(Cl)c2)NC(=O)CN(C)C(=O)[C@@H]1Cc1ccc(C(F)(F)F)cc1 [PP0129] ([NMeL]I[Sar][Sar][X18][Sar][hPhe(3-Cl-4-CF3)]P[Ac5c][NMeGly(cPent)][NMeD]-Morpholide; lactam N-11) | B (a compound having 3 or more and less than 10 is denoted as B) | C (A compound having a KD ratio of 0.1 or more and less than 3 is denoted as C)
